Entries after “also recorded” stand apart in the source; their conditions may differ.
Key:
myoblasts = assay: Intracellular calcium mobilization in myoblasts (Fluo-4 Assay); assay type: cell-based, human; conditions: for intracellular calcium on stimulation with the substance: control and patient myoblasts, live imaging; for intracellular calcium mobilization in patient myoblasts stimulated with CpG-A: pre-treatment, concentration not given
Protocol: Intracellular calcium mobilization was measured in myoblasts using the Fluo-4 Assay from Invitrogen according to the manufacturer's directions and as defined previously. Cells were loaded with 1 μm Fluo-4 for 30 min at 37° C. in 5% CO2/95% O2, as described previously […]. The plates were then transferred to a temperature-controlled stage (Harvard Apparatus, Holliston, Mass., USA) on an Olympus IX-70 inverted microscope. Cultures were visualized using a 40×0.7 numerical aperture fluorite water-immersion objective (TC-SP8 Leica).
To evaluate the link between muscle damage and inflammation, we explored TLR ligand involvement in the control of intracellular Ca2+ dynamics, as its intracellular increase is the hallmark of rhabdomyolysis. The levels of intracellular Ca2+ recorded using live imaging of resting cells were equivalent among control and patient cells. […] This effect observed with patient cells was specific for TLR9 ligands since no response was observed following exposure to LPS or Imiquimod in both patient and control cells. Pre-treatment with 10 μM of chloroquine or ODN-i abolished intracellular calcium mobilization in patient cells in presence of CpG-A completely. […] To obtain additional evidence for the role of inflammation in muscle damage, we measured ATP production in myoblasts following stimulation with CpG-A; we found an impairment of ATP production following stimulation with inflammatory stimuli in patient cells compared to control. To confirm the deleterious effect of TLR9 ligands in patient myoblasts, we incubated myoblasts with increasing doses of CpG-A and measured cellular mortality at different time point as accessed by the viability assay. Myoblasts from patients were exclusively sensitive to TLR9 ligands.

TLR9 = target: T1, TLR9 (Homo sapiens, UniProt Q9NR96); assay: IL-6 secretion of myoblasts stimulated with CpG-A (TLR9 ligand) after pre-treatment with TLR9 antagonists; assay type: cell-based; conditions: myoblasts pre-treated with the substance, then stimulated with CpG-A
T1 construct: endogenous in cells; host or cells: primary human CD56+ myoblasts from muscle biopsies
T1 sequence (Q9NR96 26-1032): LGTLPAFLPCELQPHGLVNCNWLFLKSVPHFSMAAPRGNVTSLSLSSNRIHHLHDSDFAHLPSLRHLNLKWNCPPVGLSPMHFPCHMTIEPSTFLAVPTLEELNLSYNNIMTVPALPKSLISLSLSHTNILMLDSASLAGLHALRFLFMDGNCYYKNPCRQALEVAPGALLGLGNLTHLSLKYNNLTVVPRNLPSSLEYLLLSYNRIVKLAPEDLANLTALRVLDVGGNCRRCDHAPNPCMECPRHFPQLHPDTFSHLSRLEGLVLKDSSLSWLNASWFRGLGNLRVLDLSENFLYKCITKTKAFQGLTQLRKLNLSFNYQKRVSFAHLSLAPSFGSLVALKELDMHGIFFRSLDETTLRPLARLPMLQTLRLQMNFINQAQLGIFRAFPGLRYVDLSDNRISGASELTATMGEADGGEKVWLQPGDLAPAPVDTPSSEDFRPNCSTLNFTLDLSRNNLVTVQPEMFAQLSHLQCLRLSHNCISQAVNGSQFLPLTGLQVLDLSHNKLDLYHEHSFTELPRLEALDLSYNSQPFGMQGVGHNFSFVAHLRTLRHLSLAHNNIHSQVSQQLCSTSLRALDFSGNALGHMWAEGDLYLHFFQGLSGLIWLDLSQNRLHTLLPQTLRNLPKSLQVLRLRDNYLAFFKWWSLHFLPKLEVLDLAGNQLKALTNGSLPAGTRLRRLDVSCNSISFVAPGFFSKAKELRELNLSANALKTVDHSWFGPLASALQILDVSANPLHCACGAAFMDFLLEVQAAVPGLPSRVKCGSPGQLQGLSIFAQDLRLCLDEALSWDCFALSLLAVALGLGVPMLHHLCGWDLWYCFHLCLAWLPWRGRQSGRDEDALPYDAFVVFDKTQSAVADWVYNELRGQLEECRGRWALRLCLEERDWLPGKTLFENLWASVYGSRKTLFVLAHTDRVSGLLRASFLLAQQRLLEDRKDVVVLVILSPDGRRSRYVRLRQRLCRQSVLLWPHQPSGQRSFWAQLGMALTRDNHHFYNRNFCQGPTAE
Protocol: Human primary myoblasts were isolated and grown as described. CD56+ myoblasts were isolated by flow cytometry cell sorting using an anti CD56-APC conjugated antibody (e. Biosciences) and routinely maintained in F10 medium supplemented with 20% Fetal Bovine Serum (FBS).
After 12 hours of TLR stimulation of DC at 37° C. in humidified air containing 5% CO2, the concentrations of human IL-8, IL-6, tumor necrosis factor (TNF)-α, IL-1β, IL-10, IL-4, Monocyte Chemoattractant Protein-1 (MCP-1), RANTES (Regulated on Activation, Normal T cell Expressed and Secreted), and Macrophage Inflammatory Protein (MIP)-1-α and β in the culture supernatants were measured with a human cytokine Cytometric Bead Assay (CBA) kit (BD Biosciences, San Jose, Calif.) in accordance with the manufacturer's instructions. In brief, 50 μL of supernatant was mixed with 50 μL of mixed capture beads, and a standard curve was generated. After 3 hours of incubation at room temperature, the samples were washed and suspended in Phosphate-Buffered Saline (PBS) and then analyzed by flow cytometry (ARIA II; BD Biosciences) with CBA Analysis Software (FCAP Array version 3.0; Soft Flow, St Louis Park, Minn.). The results are expressed in picograms per milliliter. […]

[1] = Treatment of lipin-1 patients with hydroxychloroquine: muscle pain and serum cytokines; assay type: in vivo, human; conditions: two patients, 6 mg/Kg/day, at three months of treatment
Protocol: Two patients were treated with hydroxychloroquine (Plaquenil®, 6 mg/Kg/day).

Row | Compound | intracellular calcium on stimulation with the substance (myoblasts) | intracellular calcium mobilization in patient myoblasts stimulated with CpG-A (myoblasts) | secretion of IL-6 after stimulation by CpG-A (TLR9) | also measured
1 | CC(C)Cn1cnc2c(N)nc3ccccc3c21 [Imiquimod, imiquimod] | no response |  |  | 
2 | CCN(CC)CCCC(C)Nc1ccnc2cc(Cl)ccc12 (stereo not shown) [chloroquine] |  | abolish | attenuate or abolish; also recorded: abolish | intracellular calcium mobilization in presence of CpG-A (myoblasts; patient cells (myoblasts), pre-treatment with 10 μM): abolished
3 | O=C1CN(/N=C/c2ccc(-c3ccc([N+](=O)[O-])cc3)o2)C(O)=N1 [dantrium] |  |  |  | elevation of intracellular calcium (myoblasts; patient myoblasts, chelation of intracellular calcium): inhibited
4 | CCN(CCO)CCCC(C)Nc1ccnc2cc(Cl)ccc12 (stereo not shown) [hydroxychloroquine] |  |  |  | muscle pain [1]: decrease; pro-inflammatory cytokines (IL-8, RANTES, MCP-1) in sera [1]: dramatic decrease
5 | C[C@H](CCC(=O)O)C[C@H](C)C[C@H](C)C(=O)/C=C(\O)[C@H](C)C[C@H](C)C/C=C/[C@@H](C)[C@@H](O)[C@@H](C)[C@@H](O)C[C@@H]1CC[C@@](C)([C@H]2CC[C@@](C)([C@@H](C)O)O2)O1 [ionomycin] | induced a rapid calcium flux |  |  | 
6 | COc1cc(NC(C)CCCN)c2ncccc2c1 (stereo not shown) [primaquine] |  | abolish | attenuate or abolish; also recorded: abolish | 
